# According to patent US11160790B2, “Method of inhibiting Cryptococcus growth using eltrombopag” (priority 2019, dated 2021):
# Columns and labels:
# C. neoformans H99 = assay: Disk diffusion susceptibility assay; type: cell-based, Cryptococcus neoformans; conditions: 10 μg per disk; 25° C., 30° C. or 37° C., 48 hours
# Protocol: (§1) A disk diffusion susceptibility assay was performed to further investigate the fungistatic activity of eltrombopag at different temperatures. Briefly, C. neoformans […] or C. deuterogattii 8265 was cultured overnight at 30° C., and 100 μL of the culture (at an OD600 of about 0.1) was spread on RPMI 1640 agar plates. Paper disks (with a diameter of 6 mm) were then placed on these agar plates, and either 10 μg eltrombopag (dissolved in 5 μL DMSO) or 5 μL DMSO (control) was added to each disk. The agar plates were incubated at 25° C., 30° C., or 37° C. for 48 hours and photographed.
# C. deuterogattii 8265 = assay: Disk diffusion susceptibility assay; type: cell-based, Cryptococcus deuterogattii; conditions: 10 μg per disk; 25° C., 30° C. or 37° C., 48 hours
# Protocol: as §1
# [1] = system: Candida tropicalis MYA3404; assay: Microdilution assay (CLSI M27-A3/M38-A2), MIC and MFC; type: cell-based; conditions: 35° C.
# Protocol: (§2) Cryptococcus and Candida species were cultured in yeast extract-peptone-dextrose (YPD) medium (containing 1% yeast extract, 2% peptone, 2% glucose, and optionally 2% agar for preparation of an agar plate). Aspergillus, Fusarium, and Trichophyton species were cultured on potato dextrose agar (PDA) plate (containing 2% potato infusion, […], and 1.5% agar). A microdilution assay was performed to determine minimum inhibitory concentration (MIC), minimum fungicidal concentration (MFC), and fractional inhibitory concentration (FIC) index (FICI) using RPMI 1640 medium buffered with MOPS. Minimal medium (containing 15 mM glucose, 10 mM magnesium sulfate, 29.4 mM potassium dihydrogen phosphate, 13 mM glycine, and 3 μM thiamine hydrochloride; pH 5.5) was used for capsule size assay and melanization assay.
# (§3) To investigate the inhibitory effects of eltrombopag on the growth of fungi, microdilution assays (based on the CLSI standards M27-A3 and M38-A2) were performed with multiple pathogenic yeasts and filamentous fungi including Cryptococcus, Candida, Aspergillus, Fusarium, and Trichophyton (TABLE 1). Briefly, yeast or filamentous fungi strains at a final concentration of about 10^3 cfu/mL were inoculated in RPMI 1640 medium containing two-fold serially diluted eltrombopag (started at 64 mg/L). In addition, fungal cultures without eltrombopag were used as positive controls, while media without fungal cells and eltrombopag were used as negative controls. The 96-well plates loaded with the aforementioned cultures were incubated at 35° C. for 48 hours, and the growth of cells in each well was examined to determine the minimum inhibitory concentration (MIC) of eltrombopag, which was the lowest drug concentration at which there was no visible cell growth. Thereafter, 3 μL of the fungal culture from each well of the 96-well plates was spotted onto eltrombopag-free YPD (for yeasts) or PDA (for filamentous fungi) agar plates, which were then incubated at 35° C. for 48 hours to examine colony formation Minimum fungicidal concentration (MFC) was determined to be the lowest drug concentration at which no colonies formed. The assays were performed in triplicate.
# [2] = system: Fusarium solani Fungus III-6; assay: as above; type: cell-based
# Protocol: as §2, §3
# [3] = system: Cryptococcus neoformans H99; assay: as above; type: cell-based; conditions: 35° C.
# Protocol: as §2, §3
# Candida glabrata CBS138 = assay: as above; type: cell-based; conditions: Nakaseomyces glabratus, 35° C.
# Protocol: as §2, §3
# [4] = system: Cryptococcus neoformans 89-610; assay: as above; type: cell-based; conditions: 35° C.
# Protocol: as §2, §3
# [5] = system: Candida parapsilosis ATCC22019; assay: as above; type: cell-based; conditions: Lodderomyces parapsilosis, 35° C.
# Protocol: as §2, §3
# [6] = system: Cryptococcus deuterogattii R272; assay: as above; type: cell-based; conditions: 35° C.
# Protocol: as §2, §3
# [7] = system: Trichophyton rubrum MYA4438; assay: as above; type: cell-based
# Protocol: as §2, §3
# Candida albicans SC5314 = assay: as above; type: cell-based; conditions: 35° C.
# Protocol: as §2, §3
# [8] = system: Candida lusitaniae ATCC42720; assay: as above; type: cell-based; conditions: Clavispora lusitaniae, 35° C.
# Protocol: as §2, §3
# [9] = system: Cryptococcus gattii WM276; assay: as above; type: cell-based; conditions: 35° C.
# Protocol: as §2, §3
# [10] = system: Aspergillus fumigatus AF293; assay: as above; type: cell-based
# Protocol: as §2, §3
# [11] = system: Cryptococcus neoformans T1; assay: as above; type: cell-based
# Protocol: as §2, §3
# Candida krusei ATCC6258 = assay: as above; type: cell-based; conditions: Pichia kudriavzevii, 35° C.
# Protocol: as §2, §3
# [12] = system: Cryptococcus deuterogattii R265; assay: as above; type: cell-based; conditions: 35° C.
# Protocol: as §2, §3
# [13] = system: multiple C. neoformans/C. gattii; assay: Microdilution assay, summary for Cryptococcus species; type: cell-based
# Protocol: as §2, with “Minimal medium (containing 15 mM glucose, 10 mM magnesium sulfate, 29.4 mM potassium dihydrogen phosphate, 13 mM glycine, and 3 μM thiamine hydrochloride; pH 5.5) was used for capsule size assay and melanization assay.” left out
# (§4) To investigate the inhibitory effects of eltrombopag on the growth of fungi, microdilution assays (based on the CLSI standards M27-A3 and M38-A2) were performed with multiple pathogenic yeasts and filamentous fungi including Cryptococcus, Candida, Aspergillus, Fusarium, and Trichophyton (TABLE 1). […] Thereafter, 3 μL of the fungal culture from each well of the 96-well plates was spotted onto eltrombopag-free YPD (for yeasts) or PDA (for filamentous fungi) agar plates, which were then incubated at 35° C. for 48 hours to examine colony formation Minimum fungicidal concentration (MFC) was determined to be the lowest drug concentration at which no colonies formed. […]
# most Candida species = assay: Microdilution assay, summary for Candida species; type: cell-based
# Protocol: as §2, with “Minimal medium (containing 15 mM glucose, 10 mM magnesium sulfate, 29.4 mM potassium dihydrogen phosphate, 13 mM glycine, and 3 μM thiamine hydrochloride; pH 5.5) was used for capsule size assay and melanization assay.” left out
# as §4
smiles,measurement,setting,value
CC1=NN(c2ccc(C)c(C)c2)C(=O)/C1=N\Nc1cccc(-c2cccc(C(=O)O)c2)c1O [eltrombopag],inhibition zones,C. neoformans H99,significantly larger inhibition zones were observed at 37 °C
same,inhibition zones,C. deuterogattii 8265,significantly larger inhibition zones were observed at 37 °C
same,MIC,[1]; 48 hours,64 µg/mL
same,MFC,[1]; 48 hours on drug-free agar,> 64 µg/mL
same,antifungal activity,[2],no antifungal activity
same,MIC,"[2]; Fusarium solani, 35° C., 48 hours",> 64 µg/mL
same,MFC,"[2]; Fusarium solani, 35° C., 48 hours on drug-free agar",> 64 µg/mL
same,MIC,[3]; 48 hours,0.125 µg/mL
same,MFC,[3]; 48 hours on drug-free agar,> 64 µg/mL
same,MIC,"Candida glabrata CBS138; CBS138, 48 h, 48 hours",~0.25 µg/mL
same,MFC,"Candida glabrata CBS138; CBS138, 48 hours on drug-free agar",> 64 µg/mL
same,MIC,"[4]; Cryptococcus neoformans, 89610, 48 h, 48 hours, azole-resistant strain",0.125 µg/mL
same,MFC,"[4]; Cryptococcus neoformans, 89610, 48 hours on drug-free agar",> 64 µg/mL
same,MIC,[5]; 48 hours,64 µg/mL
same,MFC,[5]; 48 hours on drug-free agar,> 64 µg/mL
same,MIC,[6]; 48 hours,0.125 µg/mL
same,MFC,[6]; 48 hours on drug-free agar,> 64 µg/mL
same,MFC,"[7]; MYA4438, 35° C., 48 hours on drug-free agar",> 64 µg/mL
same,MIC,"[7]; MYA4438, 48 h, 35° C., 48 hours",~0.5 µg/mL
same,MIC,Candida albicans SC5314; 48 hours,> 64 µg/mL
same,MFC,Candida albicans SC5314; 48 hours on drug-free agar,> 64 µg/mL
same,MIC,[8]; 48 hours,64 µg/mL
same,MFC,[8]; 48 hours on drug-free agar,> 64 µg/mL
same,MIC,[9]; 48 hours,0.125 µg/mL
same,MFC,[9]; 48 hours on drug-free agar,> 64 µg/mL
same,antifungal activity,[10],no antifungal activity
same,MIC,"[10]; Aspergillus fumigatus, AF293, 35° C., 48 hours",> 64 µg/mL
same,MFC,"[10]; Aspergillus fumigatus, AF293, 35° C., 48 hours on drug-free agar",> 64 µg/mL
same,MFC,"[11]; T1, 35° C., 48 hours on drug-free agar",> 64 µg/mL
same,MIC,"[11]; T1, 48 h, 35° C., 48 hours, azole-resistant strain",0.125 µg/mL
same,MIC,Candida krusei ATCC6258; 48 hours,64 µg/mL
same,MFC,Candida krusei ATCC6258; 48 hours on drug-free agar,> 64 µg/mL
same,MIC,[12]; 48 hours,0.125 µg/mL
same,MFC,[12]; 48 hours on drug-free agar,> 64 µg/mL
same,MIC,[13]; 35° C.,~0.125 µg/mL
same,MFCs,[13]; Cryptococcus species,higher than 64 mg/L
same,MIC,most Candida species,≥ 64 mg/1
